Measured values taken from article PMC3914206.

What was measured:
Experiment in all cases: KiNativ chemical proteomics profiling in HeLa and PC3 cell lysates
[1] = target: T1, selected panels of kinases in HeLa and PC3 cell lysates (Homo sapiens, UniProt Q13555); assay type: binding; settings: 10 uM, peptide TSTQEYAAkIINTK, labeling site Lys1
T1 construct: endogenous in cells; host or cells: HeLa and PC3 cell lysates

[2] = target: T2, selected panels of kinases in HeLa and PC3 cell lysates (Homo sapiens, UniProt Q7KZI7); assay type: binding; settings: 10 uM; proteome PC3; peptide EVAVk[…]; labeling site Lys1
T2 construct: endogenous in cells; host or cells: HeLa and PC3 cell lysates

[3] = target: T3, selected panels of kinases in HeLa and PC3 cell lysates (Homo sapiens, UniProt Q13043); assay type: binding; settings: 10 uM, peptide […]k[…], labeling site Lys1
T3 construct: endogenous in cells; host or cells: HeLa and PC3 cell lysates
T3 sequence (Q13043 1-487): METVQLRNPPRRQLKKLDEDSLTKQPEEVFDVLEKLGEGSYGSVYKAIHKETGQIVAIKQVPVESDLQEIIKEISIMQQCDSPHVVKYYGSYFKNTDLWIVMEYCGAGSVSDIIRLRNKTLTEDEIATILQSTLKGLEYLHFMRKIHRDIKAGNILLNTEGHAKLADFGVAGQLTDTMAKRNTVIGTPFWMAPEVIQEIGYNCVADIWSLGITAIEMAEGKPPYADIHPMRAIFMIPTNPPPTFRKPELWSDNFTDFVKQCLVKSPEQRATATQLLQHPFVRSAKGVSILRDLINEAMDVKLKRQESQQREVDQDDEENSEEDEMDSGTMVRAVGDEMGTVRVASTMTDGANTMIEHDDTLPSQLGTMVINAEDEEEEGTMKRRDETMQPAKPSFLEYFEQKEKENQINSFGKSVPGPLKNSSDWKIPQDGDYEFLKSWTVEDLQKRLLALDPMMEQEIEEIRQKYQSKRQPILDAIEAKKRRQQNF

[4] = tested on: selected panels of kinases in HeLa and PC3 cell lysates; assay type: binding, human; settings: 10 uM; for % Inhibition PI4KA,PI4KAP2: peptide SGTPMQSAAkAPYLAK, labeling site ATP; for % Inhibiton, MAP3K2,MAP3K3: peptide DIkGANILR; for % Inhibiton, IKKe,TBK1: peptide DIkPGNIMR; for % Inhibiton, JNK1,JNK2,JNK3: peptide DLkPSNIVVK; for % Inhibiton, MAP2K1,MAP2K2: peptide DVkPSNILVNSR
[5] = target: T4, selected panels of kinases in HeLa and PC3 cell lysates (Homo sapiens, UniProt P21127); assay type: binding; settings: 10 uM; PITSLRE; peptide DLk[…]; proteome PC3; labeling site Lys2
T4 construct: endogenous in cells; host or cells: HeLa and PC3 cell lysates

[6] = target: T5, selected panels of kinases in HeLa and PC3 cell lysates (Homo sapiens, UniProt Q96GX5); assay type: binding; settings: 10 uM; proteome HEL; peptide LYAVkVVK; labeling site Lys1
T5 construct: endogenous in cells; host or cells: HeLa and PC3 cell lysates

[7] = target: T6, selected panels of kinases in HeLa and PC3 cell lysates (Homo sapiens, UniProt P07948); assay type: binding; settings: 10 uM; proteome HEL; peptide VAVk[…]; labeling site Lys1
T6 construct: endogenous in cells; host or cells: HeLa and PC3 cell lysates

[8] = target: T7, selected panels of kinases in HeLa and PC3 cell lysates (Homo sapiens, UniProt Q96S44); assay type: binding; settings: 10 uM, PRPK, peptide FLSGLELVkQGAEAR, labeling site ATP Loop
T7 construct: endogenous in cells; host or cells: HeLa and PC3 cell lysates
T7 sequence (Q96S44 1-253): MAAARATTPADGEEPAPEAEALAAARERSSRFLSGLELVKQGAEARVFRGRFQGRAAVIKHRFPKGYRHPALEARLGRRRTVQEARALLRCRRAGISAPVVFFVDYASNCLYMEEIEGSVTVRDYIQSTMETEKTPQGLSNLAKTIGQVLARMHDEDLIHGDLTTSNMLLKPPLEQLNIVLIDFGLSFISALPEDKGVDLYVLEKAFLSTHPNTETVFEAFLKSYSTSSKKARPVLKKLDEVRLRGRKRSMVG

[9] = target: T8, selected panels of kinases in HeLa and PC3 cell lysates (Homo sapiens, UniProt P52333); assay type: binding; settings: 10 uM; proteome HEL; peptide IADFGLAkLLPLDKDYYVVR; labeling site Activation Loop
T8 construct: endogenous in cells; host or cells: HeLa and PC3 cell lysates

[10] = target: T9, selected panels of kinases in HeLa and PC3 cell lysates (Homo sapiens, UniProt O94804); assay type: binding; settings: 10 uM
T9 construct: endogenous in cells; host or cells: HeLa and PC3 cell lysates

[11] = target: T10, selected panels of kinases in HeLa and PC3 cell lysates (Homo sapiens, UniProt Q16539); assay type: binding; settings: 10 uM
T10 construct: endogenous in cells; host or cells: HeLa and PC3 cell lysates

[12] = target: T11, selected panels of kinases in HeLa and PC3 cell lysates (Homo sapiens, UniProt Q9Y5S2); assay type: binding; settings: 10 uM, proteome PC3
T11 construct: endogenous in cells; host or cells: HeLa and PC3 cell lysates

[13] = target: T12, selected panels of kinases in HeLa and PC3 cell lysates (Homo sapiens, UniProt P30291); assay type: binding; settings: 10 uM; Wee1; peptide […]k[…]; proteome HEL; labeling site Lys2
T12 construct: endogenous in cells; host or cells: HeLa and PC3 cell lysates

[14] = peptide DIk[…], proteome HEL, labeling site Lys2
[15] = peptide DIk[…], proteome PC3, labeling site Lys2
[16] = proteome HEL, labeling site Lys2
[17] = proteome HEL, peptide DLk[…], labeling site Lys2
[18] = proteome PC3, labeling site Lys2
[19] = proteome PC3, peptide DIk[…], labeling site Lys2
[20] = proteome PC3, peptide DLk[…], labeling site Lys2

T9 sequence (O94804 whole entry): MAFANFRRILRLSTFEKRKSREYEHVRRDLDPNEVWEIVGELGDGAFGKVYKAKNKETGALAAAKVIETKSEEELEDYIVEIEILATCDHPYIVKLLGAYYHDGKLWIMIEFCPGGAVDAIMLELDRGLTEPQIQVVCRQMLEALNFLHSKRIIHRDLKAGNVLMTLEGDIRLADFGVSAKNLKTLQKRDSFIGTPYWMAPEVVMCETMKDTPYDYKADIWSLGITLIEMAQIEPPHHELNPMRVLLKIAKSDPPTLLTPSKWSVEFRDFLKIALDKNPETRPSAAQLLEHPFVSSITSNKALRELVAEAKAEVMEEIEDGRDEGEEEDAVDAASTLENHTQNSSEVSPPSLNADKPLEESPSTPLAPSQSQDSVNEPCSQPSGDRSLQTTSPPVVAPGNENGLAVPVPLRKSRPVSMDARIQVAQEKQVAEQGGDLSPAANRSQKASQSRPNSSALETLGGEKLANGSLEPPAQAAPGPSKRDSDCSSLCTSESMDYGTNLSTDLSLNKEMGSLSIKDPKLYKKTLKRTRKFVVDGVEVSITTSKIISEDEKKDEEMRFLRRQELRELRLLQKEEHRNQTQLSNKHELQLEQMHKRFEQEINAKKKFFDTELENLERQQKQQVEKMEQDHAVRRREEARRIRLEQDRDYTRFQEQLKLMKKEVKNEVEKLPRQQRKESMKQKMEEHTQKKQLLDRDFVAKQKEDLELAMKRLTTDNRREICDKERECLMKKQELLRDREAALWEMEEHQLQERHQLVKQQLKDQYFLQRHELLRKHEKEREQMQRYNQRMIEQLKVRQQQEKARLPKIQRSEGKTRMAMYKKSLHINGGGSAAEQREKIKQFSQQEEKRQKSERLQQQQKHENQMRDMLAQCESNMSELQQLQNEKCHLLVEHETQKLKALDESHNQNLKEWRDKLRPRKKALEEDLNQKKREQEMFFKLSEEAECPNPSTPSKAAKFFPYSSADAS
T10 sequence (Q16539 whole entry): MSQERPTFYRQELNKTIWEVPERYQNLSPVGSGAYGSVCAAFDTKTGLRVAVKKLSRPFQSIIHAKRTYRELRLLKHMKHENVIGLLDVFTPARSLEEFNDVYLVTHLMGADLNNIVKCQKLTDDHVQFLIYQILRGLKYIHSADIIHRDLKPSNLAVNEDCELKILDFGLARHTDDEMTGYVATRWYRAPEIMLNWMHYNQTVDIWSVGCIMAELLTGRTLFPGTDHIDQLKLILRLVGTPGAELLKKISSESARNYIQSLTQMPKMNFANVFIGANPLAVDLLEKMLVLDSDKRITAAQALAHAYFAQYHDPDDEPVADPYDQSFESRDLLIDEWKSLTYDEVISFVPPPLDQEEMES
T11 sequence (Q9Y5S2 whole entry): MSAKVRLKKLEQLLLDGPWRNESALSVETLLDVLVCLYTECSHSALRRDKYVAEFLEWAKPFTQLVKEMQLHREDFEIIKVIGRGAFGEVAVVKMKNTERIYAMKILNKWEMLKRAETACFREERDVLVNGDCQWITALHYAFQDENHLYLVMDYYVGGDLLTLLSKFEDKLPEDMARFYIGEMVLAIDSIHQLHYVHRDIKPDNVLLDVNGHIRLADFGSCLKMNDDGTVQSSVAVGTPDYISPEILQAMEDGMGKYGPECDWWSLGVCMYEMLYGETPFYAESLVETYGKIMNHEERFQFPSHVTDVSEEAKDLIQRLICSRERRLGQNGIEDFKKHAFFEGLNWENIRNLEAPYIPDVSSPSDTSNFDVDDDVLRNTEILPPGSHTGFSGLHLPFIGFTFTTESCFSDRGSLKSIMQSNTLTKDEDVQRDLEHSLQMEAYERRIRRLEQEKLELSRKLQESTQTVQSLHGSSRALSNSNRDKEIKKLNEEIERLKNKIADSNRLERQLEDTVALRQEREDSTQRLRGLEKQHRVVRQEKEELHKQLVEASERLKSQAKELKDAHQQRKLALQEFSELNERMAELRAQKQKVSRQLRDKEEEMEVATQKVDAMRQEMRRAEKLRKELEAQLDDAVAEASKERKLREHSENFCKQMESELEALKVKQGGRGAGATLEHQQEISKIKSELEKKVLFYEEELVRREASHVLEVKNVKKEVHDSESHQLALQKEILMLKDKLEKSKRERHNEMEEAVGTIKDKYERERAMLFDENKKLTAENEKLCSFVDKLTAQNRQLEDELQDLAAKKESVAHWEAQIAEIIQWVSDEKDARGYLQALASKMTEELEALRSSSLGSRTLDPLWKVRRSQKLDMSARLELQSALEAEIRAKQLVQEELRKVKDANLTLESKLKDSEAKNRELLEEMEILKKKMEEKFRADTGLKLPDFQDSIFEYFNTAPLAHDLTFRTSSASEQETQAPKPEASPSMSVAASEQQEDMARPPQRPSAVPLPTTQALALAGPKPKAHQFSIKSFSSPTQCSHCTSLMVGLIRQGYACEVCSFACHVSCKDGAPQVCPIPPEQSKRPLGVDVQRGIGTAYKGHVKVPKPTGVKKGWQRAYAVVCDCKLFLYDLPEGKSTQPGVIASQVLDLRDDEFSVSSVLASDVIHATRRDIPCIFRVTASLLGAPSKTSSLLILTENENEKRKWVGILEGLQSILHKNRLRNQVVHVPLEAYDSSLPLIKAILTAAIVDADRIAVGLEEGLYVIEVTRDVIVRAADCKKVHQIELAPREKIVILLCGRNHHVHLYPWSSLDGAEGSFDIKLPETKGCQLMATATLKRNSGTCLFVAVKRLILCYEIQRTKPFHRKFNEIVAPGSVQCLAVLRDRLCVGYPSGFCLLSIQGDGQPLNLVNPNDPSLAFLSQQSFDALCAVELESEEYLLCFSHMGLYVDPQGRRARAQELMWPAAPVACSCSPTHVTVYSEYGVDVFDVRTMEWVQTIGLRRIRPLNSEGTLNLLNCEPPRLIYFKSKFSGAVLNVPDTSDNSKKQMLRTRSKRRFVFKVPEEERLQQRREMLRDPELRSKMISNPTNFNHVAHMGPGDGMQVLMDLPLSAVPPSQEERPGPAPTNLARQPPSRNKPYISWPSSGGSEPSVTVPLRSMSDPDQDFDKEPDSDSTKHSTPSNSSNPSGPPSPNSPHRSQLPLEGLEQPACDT
T1 sequence (Q13555 whole entry): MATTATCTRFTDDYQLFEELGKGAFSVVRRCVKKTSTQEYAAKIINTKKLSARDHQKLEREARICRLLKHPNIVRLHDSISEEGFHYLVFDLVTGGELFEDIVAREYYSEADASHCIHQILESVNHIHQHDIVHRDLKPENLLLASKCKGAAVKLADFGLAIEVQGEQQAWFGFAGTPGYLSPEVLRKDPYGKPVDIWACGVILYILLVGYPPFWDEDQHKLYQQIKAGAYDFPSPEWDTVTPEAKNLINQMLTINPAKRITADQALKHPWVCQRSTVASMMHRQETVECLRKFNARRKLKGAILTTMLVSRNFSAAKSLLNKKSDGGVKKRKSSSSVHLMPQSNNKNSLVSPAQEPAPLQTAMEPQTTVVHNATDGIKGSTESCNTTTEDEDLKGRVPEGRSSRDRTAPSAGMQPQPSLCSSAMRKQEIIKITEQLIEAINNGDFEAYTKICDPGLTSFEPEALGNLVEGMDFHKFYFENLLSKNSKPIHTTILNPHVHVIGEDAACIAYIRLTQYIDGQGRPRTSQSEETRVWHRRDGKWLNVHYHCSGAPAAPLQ
T12 sequence (P30291 whole entry): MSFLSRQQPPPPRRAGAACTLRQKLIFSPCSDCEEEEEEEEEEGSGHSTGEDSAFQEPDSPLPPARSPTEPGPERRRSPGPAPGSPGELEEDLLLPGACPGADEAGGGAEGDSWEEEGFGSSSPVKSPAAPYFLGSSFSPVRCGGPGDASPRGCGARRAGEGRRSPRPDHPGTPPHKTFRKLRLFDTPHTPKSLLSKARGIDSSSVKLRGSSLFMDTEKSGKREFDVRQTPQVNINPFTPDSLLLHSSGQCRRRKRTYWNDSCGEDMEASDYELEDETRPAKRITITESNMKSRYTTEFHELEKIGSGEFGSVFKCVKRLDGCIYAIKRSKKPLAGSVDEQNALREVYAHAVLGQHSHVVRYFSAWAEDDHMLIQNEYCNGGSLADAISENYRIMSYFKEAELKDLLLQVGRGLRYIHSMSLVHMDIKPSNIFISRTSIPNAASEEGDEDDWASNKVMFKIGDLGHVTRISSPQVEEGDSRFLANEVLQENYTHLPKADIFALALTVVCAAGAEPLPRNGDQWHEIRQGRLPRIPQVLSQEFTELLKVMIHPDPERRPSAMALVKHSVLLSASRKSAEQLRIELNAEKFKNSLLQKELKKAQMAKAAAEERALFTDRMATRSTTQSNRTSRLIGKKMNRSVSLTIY
T4 sequence (P21127 whole entry): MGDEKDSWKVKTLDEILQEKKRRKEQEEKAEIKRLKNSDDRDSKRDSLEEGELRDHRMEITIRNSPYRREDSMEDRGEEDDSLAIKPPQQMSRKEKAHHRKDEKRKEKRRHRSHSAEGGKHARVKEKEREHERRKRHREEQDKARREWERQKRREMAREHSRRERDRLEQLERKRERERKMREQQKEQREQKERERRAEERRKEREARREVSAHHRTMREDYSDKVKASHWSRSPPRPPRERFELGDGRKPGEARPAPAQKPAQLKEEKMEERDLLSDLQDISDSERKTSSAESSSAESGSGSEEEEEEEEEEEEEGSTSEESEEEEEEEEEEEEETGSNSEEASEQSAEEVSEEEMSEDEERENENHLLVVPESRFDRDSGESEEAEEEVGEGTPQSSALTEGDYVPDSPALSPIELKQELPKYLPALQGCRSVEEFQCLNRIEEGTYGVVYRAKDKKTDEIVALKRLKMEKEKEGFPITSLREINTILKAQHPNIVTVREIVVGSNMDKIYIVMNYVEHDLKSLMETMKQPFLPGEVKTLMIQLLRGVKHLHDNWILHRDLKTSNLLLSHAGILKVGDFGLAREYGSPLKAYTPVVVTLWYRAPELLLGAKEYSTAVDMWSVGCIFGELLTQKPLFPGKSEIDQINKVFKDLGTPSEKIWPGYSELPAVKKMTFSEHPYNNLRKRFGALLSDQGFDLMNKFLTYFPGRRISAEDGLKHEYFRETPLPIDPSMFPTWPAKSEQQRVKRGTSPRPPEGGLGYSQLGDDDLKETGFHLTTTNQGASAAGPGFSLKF

## COc1cc(C(=O)N2CCC(N3CCN(C)CC3)CC2)ccc1Nc1ncc2c(n1)N(C1CCCC1)c1ccccc1C(=O)N2C [Compound 25, 11-cyclopentyl-2-((2-methoxy-4-(4-(4-methylpiperazin-1-yl)piperidine-1-carbonyl)phenyl)amino)-5-methyl-5H-benzo[e]pyrimido[5,4-b][1,4]diazepin-6(11H)-one]
[1]; proteome HEL
  % Inhibiton, CaMK2g: 8.7%
[1]; proteome PC3
  % Inhibiton, CaMK2g: 7.8%
[2]
  % Inhibiton, MARK2: 1.3%
[3]; proteome HEL
  % Inhibiton, MST1: -9.9%
[3]; proteome PC3
  % Inhibiton, MST1: -0.157%
[4]; proteome HEL
  % Inhibition PI4KA,PI4KAP2: 23.7%
[4]; proteome PC3
  % Inhibition PI4KA,PI4KAP2: -7.2%
[4]; PKCa,PKCb, peptide DLk[…], proteome PC3, labeling site Lys2
  % Inhibition PKCa,PKCb: 16.4%
[4]; PKD1,PKD2, peptide NIVHCDLk[…], proteome HEL, labeling site Lys2
  % Inhibition PKD1,PKD2: -30.1%
[4]; ROCK1,ROCK2, peptide DVkPDNMLLDK, proteome PC3, labeling site Lys2
  % Inhibition ROCK1,ROCK2: 5.7%
[4]; RSK1,RSK2 domain1, peptide DLk[…], proteome HEL, labeling site Lys2
  % Inhibition RSK1,RSK2 domain1: -6.2%
[4]; RSK1,RSK4 domain1, peptide VLGQGSFGkVFLVR, proteome HEL, labeling site ATP Loop
  % Inhibition RSK1,RSK4 domain1: -4.9%
[4]; SRPK1,SRPK2, peptide FVAMkVVK, proteome PC3, labeling site Lys1
  % Inhibition SRPK1,SRPK2: -2.0%
[4]; [14]
  % Inhibition TAO1,TAO3: 21.0%
  % Inhibition ZC1/HGK,ZC2/TNIK,ZC3/MINK: 10.0%
[4]; [15]
  % Inhibition TAO1,TAO3: -5.2%
  % Inhibition ZC1/HGK,ZC2/TNIK,ZC3/MINK: -6.5%
[4]; Wnk1,Wnk2,Wnk3, peptide DLk[…], proteome HEL, labeling site Lys2
  % Inhibition Wnk1,Wnk2,Wnk3: 9.6%
[4]; Wnk1,Wnk2,Wnk4, peptide IGDLGLATLkR, proteome PC3, labeling site Activation Loop
  % Inhibition Wnk1,Wnk2,Wnk4: -9.4%
[4]; p70S6K,p70S6Kb, peptide GGYGkVFQVR, proteome PC3, labeling site ATP Loop
  % Inhibition p70S6K,p70S6Kb: -1.5%
[4]; [16]
  % Inhibiton, MAP3K2,MAP3K3: 14.4%
  % Inhibiton, IKKe,TBK1: 18.2%
  % Inhibiton, JNK1,JNK2,JNK3: 33.5%
  % Inhibiton, MAP2K1,MAP2K2: -0.9%
[4]; proteome HEL, peptide DIk[…], labeling site Lys2
  % Inhibiton, NEK6,NEK7: 6.9%
[4]; [17]
  % Inhibiton, AMPKa1,AMPKa2: 9.6%
  % Inhibiton, MARK2,MARK3: 9.5%
  % Inhibiton, MAST2,MAST4: 28.2%
  % Inhibiton, p38d,p38g: 12.3%
[4]; proteome HEL, peptide DVk[…], labeling site Lys2
  % Inhibiton, MYO3A,MYO3B: -3.3%
[4]; proteome HEL, peptide GQYDVAIkMIK, labeling site Lys1
  % Inhibiton, BMX,BTK: ~43.0%
[4]; proteome HEL, peptide IAIkEIPERDSR, labeling site Lys1
  % Inhibiton, MAP3K5,MAP3K6,MAP3K7: -4.3%
[4]; proteome HEL, peptide SkNVFYDNGK, labeling site Protein Kinase Domain
  % Inhibiton, KSR1,KSR2: 6.2%
[4]; proteome HEL, peptide VAVkILNR, labeling site Lys1
  % Inhibiton, AMPKa1,AMPKa2: 10.9%
[4]; proteome HEL, peptide VLGTGAYGkVFLVR, labeling site ATP Loop
  % Inhibiton, MSK1,MSK2 domain1: -9.5%
[4]; proteome HEL, peptide […]kFPIK, labeling site Activation Loop
  % Inhibiton, ABL,ARG: 17.5%
[4]; [18]
  % Inhibiton, MAP3K2,MAP3K3: -0.6%
  % Inhibiton, IKKe,TBK1: 11.0%
  % Inhibiton, JNK1,JNK2,JNK3: 30.3%
  % Inhibiton, MAP2K1,MAP2K2: -0.2%
[4]; [19]
  % Inhibiton, MST1,MST2: 8.8%
  % Inhibiton, MST4,YSK1: 1.0%
  % Inhibiton, NEK6,NEK7: -5.0%
[4]; proteome PC3, peptide DLkPENLLLASK, labeling site Lys2
  % Inhibiton, CaMK2a,CaMK2b,CaMK2d,CaMK2g: -1.1%
[4]; [20]
  % Inhibiton, AMPKa1,AMPKa2: 16.4%
  % Inhibiton, CDK11,CDK8: 8.9%
  % Inhibiton, MARK2,MARK3: 11.6%
  % Inhibiton, p38d,p38g: -6.8%
[4]; proteome PC3, peptide DVk[…], labeling site Lys2
  % Inhibiton, CK1d,CK1e: -16.9%
[4]; proteome PC3, peptide EVAIkIIDK, labeling site Lys1
  % Inhibiton, MARK3,MARK4: -5.2%
[4]; proteome PC3, peptide QGAk[…], labeling site Activation Loop
  % Inhibiton, FYN,SRC,YES: -32.2%
[4]; proteome PC3, peptide VAVkILNR, labeling site Lys1
  % Inhibiton, AMPKa1,AMPKa2: 14.9%
[5]
  % Inhibition PITSLRE: 5.1%
[6]
  % Inhibiton, MASTL: 14.5%
[7]
  % Inhibiton, LYN: -2.9%
[8]; proteome HEL
  % Inhibition PRPK: -8.1%
[8]; proteome PC3
  % Inhibition PRPK: -11.3%
[9]
  % Inhibiton, JAK3 domain2: 31.8%
[10]; [17]
  % Inhibiton, LOK: 3.2%
[10]; proteome HEL, peptide […]kVIETK, labeling site Lys1
  % Inhibiton, LOK: 2.1%
[10]; [20]
  % Inhibiton, LOK: 8.0%
[10]; proteome PC3, peptide […]kVIETK, labeling site Lys1
  % Inhibiton, LOK: 1.9%
[11]; [17]
  % Inhibiton, p38a: 6.5%
[11]; proteome HEL, peptide QELNkTIWEVPER, labeling site Other
  % Inhibiton, p38a: 12.6%
[11]; [20]
  % Inhibiton, p38a: 42.4%
[11]; proteome PC3, peptide QELNkTIWEVPER, labeling site Other
  % Inhibiton, p38a: -7.5%
[12]; peptide DIk[…], labeling site Lys2
  % Inhibiton, MRCKb: -5.1%
[12]; peptide […]kLPETK, labeling site Other
  % Inhibiton, MRCKb: 6.2%
[13]
  % Inhibition Wee1: 11.1%
